Test results published in patent US20140275010A1, “QUATERNARY SALTS” (priority 2013, published 2014).
Values belong to the molecule of their own block, whether it stands above or below them.

Columns and labels:
[1] = test system: WiDr cells: Colon cancer cells (wildtype SF3B1); test: Cell viability assay (CellTiter-Glo), WiDr cells; format: cell-based; details: 72 hr
Experimental: (§1) Cells are seeded in 96-well plate with 2000 cells/100 uL/well and incubated overnight. Spent media was removed and fresh media containing compound (100 uL/well) with appropriate 9 concentrations are added. Each compound was treated in duplicate or triplicate manner at each concentration. DMSO concentration was adjusted to be 0.1%. Another plate was dedicated as Tz plate which was added 0.1% DMSO in media (100 uL/well) followed by CellTiter-Glo® (Promega corp., 50 uL/well) for ATP measurement as a surrogate of cell viability. Values from this plate are used as Tz. Compound treated plates are incubated for 72 hr at 37 C. Then, CellTiter-Glo® (50 uL/well) was added and ATP level was measured. Values from compound treated wells are used as Ti and DMSO treated wells are used as C.
(§2) Percentage growth inhibition was calculated as:
(§3) [(Ti−Tz)/(C−Tz)]×100 for concentrations for which Ti>/=Tz
(§4) [(Ti−Tz)/Tz]×100 for concentrations for which Ti<Tz.
(§5) *[time zero, (Tz), control growth (C), and test growth in the presence of drug with dose (Ti)] Growth inhibition of 50% (GI50) was calculated from [(Ti−Tz)/(C−Tz)]×100=50, which was the drug concentration resulting in a 50% reduction in the net protein increase in control cells during the drug incubation. The LC50 (concentration of drug resulting in a 50% reduction in the measured value at the end of the drug treatment as compared to that at the beginning) indicating a net loss of cells following treatment was calculated from [(Ti−Tz)/Tz]×100=−50.
(§6) Emax was defined as highest growth inhibition that particular compound achieved in tested dose range.

[2] = test system: WiDr-R cells: Colon cancer cells (chemically-induced SF3B1 mutant which is resistant to E7107 (R1074H mutation)); test: Cell viability assay (CellTiter-Glo), WiDr-R cells; format: cell-based; details: 72 hr
Experimental: as §1, §2, §3, §4, §5, §6

[3] = test system: Panc 05.04 cells: Pancreatic cancer cells (Q699H and K700E mutations in SF3B1); test: Cell viability assay (CellTiter-Glo), Panc 05.04 cells; format: cell-based; details: 72 hr; for Gl50 Panc 05.04: Panc 05.04 pancreatic cancer cells, SF3B1 Q699H and K700E, CellTiter-Glo; for Emax Panc 05.04: highest growth inhibition achieved in tested dose range
Experimental: as §1, §2, §3, §4, §5, §6

[4] = test system: Ad2 pre-mRNA splicing in HeLa nuclear extract; test: In vitro splicing (biochemical) assay; details: in vitro splicing of Ad2 pre-mRNA, 30° C., 90 min, read-out: Biochem IC50
Experimental: In Vitro Splicing (Biochemical) Assay Protocol
Biotin-labeled pre-mRNA of an adenovirus type 2 construct with a deletion of intervening sequence (Ad2)^1 was prepared by in vitro transcription. The Ad2 construct containing Exon 1 (41 nt), Intron (231 nt), and Exon 2 (72 nt) was generated by gene synthesis and cloned into the EcoRI and XbaI sites of pGEM-3Z (Promega) by Genewiz. The plasmid was then linearized by XbaI digestion and purified. In vitro transcription and purification of transcribed pre-mRNA were performed using the MEGAScript T7 kit (Invitrogen) and MEGAclear kit (Invitrogen), respectively, following the manufacturer instructions. The ratio of biotin-16-UTP (Roche) to cold UTP was 1:13 to incorporate approximately two biotin molecules per spliced Ad2 mRNA.
In vitro splicing assay was performed at 30° C. in 25 μL reaction mixtures containing 95 μg HeLa nuclear extract (Promega), 47 nM Ad2 pre-mRNA, 25 U RNasin RNase inhibitor (Promega), 1×SP buffer (0.5 mM ATP, 20 mM creatine phosphate, 1.6 mM MgCl2), and compounds in DMSO (with 1% final concentration of DMSO). After 90 min of incubation, the reaction was stopped by addition of 18 μL of 5M NaCl, and the mixtures were incubated with 10 μL of M-280 streptavidin-coated magnetic beads (Invitrogen) for 30 min at room temperature to capture Ad2 pre- and spliced mRNA. The beads were washed twice with 100 uL buffer containing 10 mM Tris pH=7.5, 1 mM EDTA and 2M NaCl, and then incubated in RNA gel loading buffer containing 95% formamide at 70° C. for 10 min to elute the RNAs. Ad2 RNAs were resolved by 6% TBE-UREA gel, transferred to a nylon membrane, UV cross-linked, and probed with an IR-dye labeled streptavidin (LiCor) using LiCor detection. The amount of spliced RNA was quantified by measuring the band fluorescent intensity using LiCor software.

Compound: CC[C@H](O)[C@@H](C)[C@H]1O[C@@H]1C[C@H](C)/C=C/C=C(\C)[C@H]1OC(=O)C[C@H](O)CC[C@@](C)(O)[C@@H](OC(=O)N2CC[N+](C)(C3CCCCC3)CC2)/C=C/[C@@H]1C.[I-] [Cpd. 6]
Gl50 WiDr [1]: 227.0 nM
Gl50 WiDr-R [2]: >1000 nM
Gl50 Panc 05.04 [3]: 1593 nM
Emax Panc 05.04 [3]: −8.1%

Compound: CC[C@H](O)[C@@H](C)[C@H]1O[C@@H]1C[C@H](C)/C=C/C=C(\C)[C@H]1OC(=O)C[C@H](O)CC[C@@](C)(O)[C@@H](OC(=O)N2C[C@H]3C[C@@H]2C[N+]3(C)C)/C=C/[C@@H]1C.[I-] [Cpd. 16]
Gl50 WiDr [1]: >1000 nM
Gl50 WiDr-R [2]: >1000 nM
Gl50 Panc 05.04 [3]: 1746 nM
Emax Panc 05.04 [3]: −27%

Compound: CC[C@H](O)[C@@H](C)[C@H]1O[C@@H]1C[C@@](C)(O)/C=C/C=C(\C)[C@H]1OC(=O)C[C@H](O)CC[C@@](C)(O)[C@@H](OC(=O)N2CC[N+](Cc3ccccc3)(C3CCCCCC3)CC2)/C=C/[C@@H]1C.[Br-] [Cpd. 18]
Gl50 WiDr [1]: 162 nM
Gl50 Panc 05.04 [3]: 139.2 nM
Emax Panc 05.04 [3]: −55%

Compound: CCC(=O)C(C)C1OC1CC(C)(O)C=CC=C(C)C1OC(=O)CC(O)CCC(C)(O)C(OC(=O)N2CC[N+](C)(C3CCCCCC3)CC2)C=CC1C.[I-] (stereo not shown) [Cpd. 25]
Gl50 WiDr [1]: 5500.0 nM
Gl50 WiDr-R [2]: >5500 nM
Gl50 Panc 05.04 [3]: 10000 nM

Compound: CC[C@H](O)[C@@H](C)[C@H]1O[C@@H]1C[C@H](C)/C=C/C=C(\C)[C@H]1OC(=O)C[C@H](O)CC[C@@](C)(O)[C@@H](OC(=O)N2CC3(C2)C[N+](C)(C2CCCCCC2)C3)/C=C/[C@@H]1C.[I-] [Cpd. 12]
Gl50 WiDr [1]: 106.0 nM
Gl50 WiDr-R [2]: >1000 nM
Gl50 Panc 05.04 [3]: 79.2 nM
Emax Panc 05.04 [3]: −89%

IC50 [4]: 0.06 µM
Compound: CC[C@H](O)[C@@H](C)[C@H]1O[C@@H]1C[C@H](C)/C=C/C=C(\C)[C@H]1OC(=O)C[C@H](O)CC[C@@](C)(O)[C@@H](OC(=O)N2CCC[N+](C)(C(C)C)CC2)/C=C/[C@@H]1C.[I-] (stereo partly shown) [Cpd. 10]
Gl50 WiDr [1]: 1.9 nM
Gl50 WiDr-R [2]: >1000 nM
Gl50 Panc 05.04 [3]: 1.3 nM
Emax Panc 05.04 [3]: −65%

IC50 [4]: 0.05 µM
Compound: CC[C@H](O)[C@@H](C)[C@H]1O[C@@H]1C[C@H](C)/C=C/C=C(\C)[C@H]1OC(=O)C[C@H](O)CC[C@@](C)(O)[C@@H](OC(=O)N2CC[N+](C)(C)CC2)/C=C/[C@@H]1C.[I-] [Cpd. 2]
Gl50 WiDr [1]: 8.9 nM
Gl50 WiDr-R [2]: >1000 nM
Gl50 Panc 05.04 [3]: 17.0 nM
Emax Panc 05.04 [3]: −69%

Compound: CC[C@H](O)[C@@H](C)[C@H]1O[C@@H]1C[C@@](C)(O)/C=C/C=C(\C)[C@H]1OC(=O)CCCCC[C@@H](OC(=O)N2CC[N+](C)(C3CCCCCC3)CC2)/C=C/[C@@H]1C.[I-] [Cpd. 31]
Gl50 WiDr [1]: 3285 nM
Gl50 WiDr-R [2]: >10000 nM
Gl50 Panc 05.04 [3]: 2458 nM
Emax Panc 05.04 [3]: −22%

Compound: CC[C@H](O)[C@@H](C)[C@H]1O[C@@H]1C[C@H](C)/C=C/C=C(\C)[C@H]1OC(=O)C[C@H](O)CC[C@@](C)(O)[C@@H](OC(=O)N2CCC[N+](C)(C)CC2)/C=C/[C@@H]1C.[I-] [Cpd. 8]
Gl50 WiDr [1]: 568.0 nM
Gl50 WiDr-R [2]: >1000 nM
Gl50 Panc 05.04 [3]: 431.6 nM
Emax Panc 05.04 [3]: −74%

Compound: CC[C@H](O)[C@@H](C)[C@H]1O[C@@H]1C[C@H](C)/C=C/C=C(\C)[C@H]1OC(=O)C[C@H](O)CC[C@@](C)(O)[C@@H](OC(=O)NCCC[N+](C)(C)C)/C=C/[C@@H]1C.[I-] [Cpd. 5]
Gl50 WiDr [1]: 176.0 nM
Gl50 WiDr-R [2]: >10000 nM
Gl50 Panc 05.04 [3]: 120.8 nM
Emax Panc 05.04 [3]: −79%

Compound: CC[C@H](O)[C@@H](C)[C@H]1O[C@@H]1C[C@H](C)/C=C/C=C(\C)[C@H]1OC(=O)C[C@H](O)CC[C@@](C)(O)[C@@H](OC(=O)N2CCC([N+]3(C)CCCCC3)CC2)/C=C/[C@@H]1C.[I-] [Cpd. 14]
Gl50 WiDr [1]: 51.4 nM
Gl50 WiDr-R [2]: >1000 nM
Gl50 Panc 05.04 [3]: 53.3 nM
Emax Panc 05.04 [3]: −70%

Compound: C=CC[N+]1(C2CCCCCC2)CCN(C(=O)O[C@H]2/C=C/[C@H](C)[C@@H](/C(C)=C/C=C/[C@](C)(O)C[C@H]3O[C@@H]3[C@H](C)[C@@H](O)CC)OC(=O)C[C@H](O)CC[C@@]2(C)O)CC1.[Br-] [Cpd. 19]
Gl50 WiDr [1]: 551 nM
Gl50 Panc 05.04 [3]: 808.7 nM
Emax Panc 05.04 [3]: −45%

Compound: CC[C@H](O)[C@@H](C)[C@H]1O[C@@H]1C[C@H](C)/C=C/C=C(\C)[C@H]1OC(=O)C[C@H](O)CC[C@@](C)(OC(=O)N2CC[N+](C)(C3CCCCCC3)CC2)[C@@H](OC(C)=O)/C=C/[C@@H]1C.[I-] [Cpd. 26]
Gl50 WiDr [1]: 1491.0 nM
Gl50 WiDr-R [2]: >10000 nM
Gl50 Panc 05.04 [3]: 5305 nM

Compound: CC[C@H](O)[C@@H](C)[C@H]1O[C@@H]1C[C@H](C)/C=C/C=C(\C)[C@H]1OC(=O)C[C@H](O)CC[C@@](C)(OC(=O)N2CC[N+](C)(C(C)C)CC2)[C@@H](OC(C)=O)/C=C/[C@@H]1C.[I-] [Cpd. 27]
Gl50 WiDr [1]: 6781.0 nM
Gl50 WiDr-R [2]: >10000 nM
Gl50 Panc 05.04 [3]: 1115 nM
Emax Panc 05.04 [3]: −56%

Compound: CC[C@H](O)[C@@H](C)[C@H]1O[C@@H]1C[C@H](C)/C=C/C=C(\C)[C@H]1OC(=O)C[C@H](O)CC[C@@](C)(O)[C@@H](OC(=O)N2CCC[N+](C)(C3CCCCC3)CC2)/C=C/[C@@H]1C.[I-] (stereo partly shown) [Cpd. 11]
Gl50 WiDr [1]: 958.0 nM
Gl50 WiDr-R [2]: >1000 nM
Gl50 Panc 05.04 [3]: 410.7 nM
Emax Panc 05.04 [3]: −87%

Compound: CC[C@H](O)[C@@H](C)[C@H]1O[C@@H]1C[C@H](C)/C=C/C=C(\C)[C@H]1OC(=O)C[C@H](O)CC[C@@](C)(O)[C@@H](OC(=O)N(C)C2CC[N+](C)(C)CC2)/C=C/[C@@H]1C.[I-] [Cpd. 15]
Gl50 WiDr [1]: 117.0 nM
Gl50 WiDr-R [2]: >1000 nM
Gl50 Panc 05.04 [3]: 234.8 nM
Emax Panc 05.04 [3]: −53%

Compound: CC[C@H](O)[C@@H](C)[C@H]1O[C@@H]1C[C@H](C)/C=C/C=C(\C)[C@H]1OC(=O)C[C@H](O)CC[C@@](C)(OC(=O)N2CC[N+](C)(C)CC2)[C@@H](OC(C)=O)/C=C/[C@@H]1C.[I-] [Cpd. 28]
Gl50 WiDr [1]: 456.0 nM
Gl50 WiDr-R [2]: >1000 nM
Gl50 Panc 05.04 [3]: 413.3 nM
Emax Panc 05.04 [3]: −31%

Compound: C=CC[N+]1(C2CCCCCC2)CCN(C(=O)O[C@H]2/C=C/[C@H](C)[C@@H](/C(C)=C/C=C/[C@](C)(O)C[C@H]3O[C@@H]3[C@H](C)[C@@H](O)CC)OC(=O)C[C@H](O)CC[C@@]2(C)O)CC1.[I-] [Cpd. 20]
Gl50 WiDr [1]: 289 nM
Gl50 Panc 05.04 [3]: 316.9 nM
Emax Panc 05.04 [3]: −67.5%

Compound: CC[C@H](O)[C@@H](C)[C@H]1O[C@@H]1C[C@H](C)/C=C/C=C(\C)[C@H]1OC(=O)C[C@H](O)CC[C@@](C)(O)[C@@H](OC(=O)NCCC[N+]2(C)CCOCC2)/C=C/[C@@H]1C.[I-] [Cpd. 4]
Gl50 WiDr [1]: 67.4 nM
Gl50 Panc 05.04 [3]: 41.5 nM
Emax Panc 05.04 [3]: −75%

Compound: CC[C@H](O)[C@@H](C)[C@H]1O[C@@H]1C[C@H](C)/C=C/C=C(\C)[C@H]1OC(=O)C[C@H](O)CC[C@@](C)(O)[C@@H](OC(=O)N2CCC([N+]3(C)CCCC3)CC2)/C=C/[C@@H]1C.[I-] [Cpd. 13]
Gl50 WiDr [1]: 44.1 nM
Gl50 WiDr-R [2]: >1000 nM
Gl50 Panc 05.04 [3]: 80.4 nM
Emax Panc 05.04 [3]: −61%
